Measured values as given in patent US5091539A, “Azolyl cycloalkanol derivatives and agricultural fungicides” (Shionogi & Co., Ltd., priority 1984, dated 1992).

Test system: Sphaerotheca fuliginea
Assay: Control test to powdery mildew of cucumber (foliar and soil treatment)
Format: in vivo
Settings: for Foliar Treatment, Curative Effect / Foliar Treatment, Protective Effect / Soil Treatment, Protective Effect: index 0-10; for Protective Index, Foliar Treatment / Protective Index, Soil Treatment: 14 days
Description: (1) Seeds of cucumber (Cultivar: Matsukaze) were sown in a pot of 9 cm in diameter and the pots were kept in a green house until the plant was grown for 2-3 leaf stage. The first leaf was sprayed with, (i) 3 ml each of solutions containing the test compound at the prescribed concetrations and dried by the air (foliar treatment). Inoculation of spore suspension of Sphaerotheca fuliginea by spraying was practised 2 days before the treatment (curative effect) or 1 day after the treatment (protective effect). Alternatively, (ii) 5 ml of the solution was applied at the root of the seedlings (soil treatment). The pots were kept in a greenhouse for 2 days and inoculation was practised in the same manner noted above. (iii) After sprayed with 3 ml of a solution of the test compound at a concentration of 125 ppm and dried by the air, the treated pots were set in a greenhouse. Untreated pots were placed next to the treated pots. Those treated and untreated plants were inoculated with spore suspension. Protective effect of the test compounds by vapor was thus checked. The effect was examined 14 days after the inoculation of the spores.
0: Disease sign is observed on the whole leaf.
3: Disease sign is observed on the leaf in about 50%.
5: Disease sign is observed on the leaf in about 30%.
7: Disease sign is observed on the leaf in about 20%.
9: a little disease sign is observed.
(1) Test methods and evaluation are the same as those in Tests 2, 4 and 6.

| Compound | Foliar Treatment, Curative Effect (second Table 4, 0.5 ppm) | Foliar Treatment, Protective Effect (second Table 4, 0.5 ppm) | Soil Treatment, Protective Effect (second Table 4, 0.5 ppm) | Foliar Treatment, Curative Effect (second Table 4, 2.0 ppm) | Foliar Treatment, Protective Effect (second Table 4, 2.0 ppm) | Soil Treatment, Protective Effect (second Table 4, 2.0 ppm) | Foliar Treatment, Curative Effect (second Table 4, 7.8 ppm) | Foliar Treatment, Protective Effect (second Table 4, 7.8 ppm) | Soil Treatment, Protective Effect (second Table 4, 7.8 ppm) | Foliar Treatment, Curative Effect (second Table 4, 31.3 ppm) | Foliar Treatment, Protective Effect (second Table 4, 31.3 ppm) | Soil Treatment, Protective Effect (second Table 4, 31.3 ppm) | Protective Index, Foliar Treatment (first Table 4, 125 ppm) | Protective Index, Soil Treatment (first Table 4, 125 ppm) | Protective Index, Soil Treatment (first Table 4, 500 ppm) |
| --- | --- | --- | --- | --- | --- | --- | --- | --- | --- | --- | --- | --- | --- | --- | --- |
| O[C@@]1(c2ccc(Cl)c(Cl)c2)CCCCC[C@H]1n1cncn1 (relative stereo) [Compound 34] | 5 (Disease sign is observed on the leaf in about 30%.) | 0 | 0 | 10 | 0 | 0 | 10 | 9 | 0 | 10 | 10 | 0 | – | – | – |
| Cc1ccc2nc3sc(=O)sc3nc2c1 [Chinomethionat, reference compound] | – | – | – | – | – | – | – | – | – | – | – | – | 10 | – | – |
| O[C@@]1(c2cccc(Cl)c2)CCCC[C@H]1n1cncn1 (relative stereo) [Compound 31] | 3 (Disease sign is observed on the leaf in about 50%.) | 0 | – | 9 | 0 | – | 10 | 9 | – | 10 | 10 | – | – | – | – |
| O[C@@]1(c2ccc(F)cc2)CCCC[C@H]1n1ccnc1 (relative stereo) [Compound 29] | 0 | 0 | – | 3 (Disease sign is observed on the leaf in about 50%.) | 3 (Disease sign is observed on the leaf in about 50%.) | – | 9 | 9 | – | 10 | 10 | – | – | – | – |
| O[C@@]1(c2ccc(Cl)c(Cl)c2)CCCC[C@H]1n1cncn1 (relative stereo) [Compound 33] | 3 (Disease sign is observed on the leaf in about 50%.) | 0 | 0 | 10 | 5 (Disease sign is observed on the leaf in about 30%.) | 0 | 10 | 10 | 0 | 10 | 10 | 0 | – | – | – |
| O[C@@]1(c2ccc(Cl)cc2)CCCCC[C@H]1n1ccnc1 (relative stereo) [Compound 27] | 0 | 0 | – | 5 (Disease sign is observed on the leaf in about 30%.) | 3 (Disease sign is observed on the leaf in about 50%.) | – | 10 | 9 | – | 10 | 10 | – | – | – | – |
| O[C@@]1(Cc2ccc(Cl)cc2)CCCCC[C@H]1n1cncn1 (relative stereo) [Compound 5, cis-1-(4-chlorobenzyl)-2-(1,2,4-triazol-1-yl)cycloheptanol] | – | – | – | – | – | – | – | – | – | – | – | – | 10 | 3 (Disease sign is observed on the leaf in about 50%.) | – |
| O[C@@]1(c2ccc(F)cc2)CCCCC[C@H]1n1ccnc1 (relative stereo) [Compound 23] | 0 | 0 | – | 3 (Disease sign is observed on the leaf in about 50%.) | 5 (Disease sign is observed on the leaf in about 30%.) | – | 10 | 10 | – | 10 | 10 | – | – | – | – |
| CCCCc1c(C)nc(N(C)C)nc1O [Dimethirimol, reference compound] | – | – | – | – | – | – | – | – | – | – | – | – | – | – | 5 (Disease sign is observed on the leaf in about 30%.) |
| O[C@@]1(Cc2ccc(Cl)cc2Cl)CCCC[C@H]1n1cncn1 (relative stereo) [Compound 3, cis-1-(2,4-dichlorobenzyl)-2-(1,2,4-triazol-1-yl)cyclohexanol] | – | – | – | – | – | – | – | – | – | – | – | – | 10 | 10 | – |
